These results are taken from patent publication US20060069021A1, “Compositions and methods for intranasal administration of inactive analogs of PTH or inactivated preparations of PTH or PTH analogs” (Nastech Pharmaceutical Company Inc., priority 2004, published 2006).

“Also recorded” adds a separate entry of the source. Where two headings read alike, the source gives them in different places. Ends that are not written are not given here.

One data set relates to ovariectomized rat model. The following applies: cited from earlier work.
For another data set, the system named is aminopeptidases. The following applies: cited from earlier work.
Data set [1] concerns Type II collagen production by human chondrocytes. The data set can be described thus: Cartilage growth model: human chondrocytes in alginate beads, type II collagen ELISA. In kind it is cell-based. As to the method: A. Approximately 3 million human chondrocyte cells (Cell Applications, Inc., San Diego, Calif.) encapsulated in alginate beads were received in 25 mL total volume of re-differentiated medium. Human chondrocytes in alginate beads produce their phenotypic markers such as aggrecan and type II collagen unlike in monolayer culture where chondrocytes lose their phenotypic characteristics and de-differentiate to fibroblast-like cells. Alginate based cell system was pursued to assess type II collagen expression as result of PTH dosing and therefore indication of any cartilage growth.
B. The cell-containing alginate bead suspension was transferred from cell culture flask to 50 mL conical tubes. A volume of 500 μL (˜62,500 cells per well) suspension was dispensed per well in 24-well plates. Samples were added to each well and final volume was brought to one milliliter with appropriate growth media. Controls included cells treated with re-differentiated media as positive control (Cell Applications, Inc., San Diego, Calif.), cells treated with chondrocyte growth media (Cell Applications, Inc., San Diego, Calif.) and basal media (Cell Applications, Inc., San Diego, Calif.) as negative controls.
C. Plates were swirled gently to allow homogenous mixture of each sample. Plates were placed in 37° C., 5% CO2 incubator. Human chondrocytes were grown for up to 12 days on longer. Appropriate growth media were replaced every second or third day. Alginate beads were prepared for type II collagen extraction on the last day of the experiment and extracted collagen was quantified using Native Type II Collagen Detection Kit (Chondrex Inc., Redmond Wash.). Pictures of cells immediately following the samples application and at several time points during the course of experiment were taken using the Olympus CK40 microscope and Nikon Cool Pix 4500 digital camera.
D. A capture ELISA kit (Native Type II Collagen Detection Kit, Chondrex Inc.) was used to measure native type II collagen. For measuring glycosaminoglycans, the kit used was Blyscan Sulfated Glycosaminoglycan Assay kit (Accurate Chemical & Scientific Corp.).
Next, the alginate-based cell system (cartilage growth model; refer to Example 2) was used to determine whether PTH dosing could stimulate chondrocytes to produce cartilage. […] Type II collagen is a major component of the extracelluar matrix of nasal cartilage and therefore was used as a molecular marker for cartilage growth in this assay.
The cell-containing alginate beads were incubated in the presence of various test solutions for 12 days at 37° C., 5% CO2. After the incubation, the alginate beads were processed using an extraction method in order to quantify the production of type II collagen.
(In general: In an ELISA, binding on a coated surface is turned into a signal by an enzyme label.)

The conditions of data set [2]: anesthetized rats, cited from earlier work.
The conditions of data set [3]: aqueous solution at physiologic pH; cited from earlier work.
For a further data set, the system named is ciliary motility. The following applies: cited from earlier work.
The conditions of data set [4]: rats, intraduodenal, with 1% (w/v) saline dispersion of polycarbophil; cited from earlier work.
Data set [5] deals with human chondrocyte cell monolayer. The data set can be described thus: Cell proliferation model: human chondrocyte monolayer, MTT assay. In kind it is cell-based. Particulars: MTT at t=0 and after 4 days at 37° C./5% CO2. As to the method: A. Chondrocyte monolayers (Cell Applications, Inc., San Diego, Calif.) derived from normal human cartilage were adhered on to a 24-well plate and shipped following the first doubling. Approximately 16000 cells per well were expected at the time the cells were received. Two plates were treated identically with PTH and appropriate control samples. Controls included cells treated with chondrocyte growth media for positive control (Cell Applications, Inc., San Diego, Calif.) and cells treated with basal media for negative control (Cell Applications, Inc., San Diego, Calif.).
B. After the cells are treated, one of the two plates was analyzed for cell viability (t=0 sample). The second plate was placed at 37° C., 5% CO2 incubator for 4 days, after which the plates were analyzed using the MTT assay.
C. MTT is a cell-permeable tetrazolium salt which is reduced by mitochondrial dehydrogenase activity to an insoluble colored formazan by viable cells with intact mitochondrial function or by nonmitochondrial NAD(P)H dehydrogenase activity from cells capable of generating a respiratory burst. […] We have employed a MTT reagent kit prepared by MatTek Corp for their units as in indicator of cell proliferation.
A human chondrocyte cell monolayer model was employed to examine cell proliferation (refer to Example 2). […]
On the technique in general: Tetrazolium dyes change colour on reduction, which living cells bring about.

“Ser Val Ser Glu Ile Gln Leu Met His Asn Leu Gly Lys His Leu Asn Ser Met Glu Arg Val Glu Trp Leu Arg Lys Lys Leu Gln Asp Val-NH2 (SVSEIQLMHNLGKHLNSMERVEWLRKKLQDV-NH2) [hPTH-(1-31)-NH2]”: the “restoration of bone loss” value in the data set on ovariectomized rat model is on record as “fully active”.

With `CC(C)CC(N)B(O)O` (stereo not drawn) [boro-leucine], in the data set on aminopeptidases, the “effectiveness in enzyme inhibition relative to bestatin” value is “more than 100 times” and the “effectiveness in enzyme inhibition relative to puromycin” value is on record as “more than 1,000 times”.

On to calcitonin, for which the “type II collagen production” value in data set [1] (20 μg calcitonin) and in data set [1] (200 μg calcitonin) was “no effect” in each case.

As for “human growth hormone: human growth hormone given nasally with or without N-acetyl-L-cysteine”, the “nasal bioavailability of human growth hormone” value was 12.2% in data set [2] (with N-acetyl-L-cysteine (ACS)) and 7.5% in data set [2] (without N-acetyl-L-cysteine).

Take insulin-like growth factor I [IGF-I]: the “type II collagen production” value in data set [1] (5 μg IGF-I (positive control)) was “greater than 1.2 pg per culture”.

`CCN(CC)/[N+]([O-])=N/O.CCNCC` [diethylamine/NO]: in data set [3], the “rate (time) of NO release” value was less than 3 min.

“2-alkyl-4-hydroxyquinolines [pyo compound]”: in the data set on ciliary motility, the “concentration producing ciliostasis / inhibiting ciliary motility” value is 50 µg/mL.

Regarding `NCCN(CCN)/[N+]([O-])=N/O` [diethylenetriamine/NO (DETANO), diethylenetriamine/NO], the “rate (time) of NO release” value in data set [3] is reported as “approximately 20 hours”.

On to “9-desglycinamide, 8-arginine vasopressin”, for which the “increase of bioavailability compared to aqueous solution without polymer” value in data set [4] is on record as 3-5 fold.

B1: PTH: Parathyroid hormone peptide tested in Example 4; which form (1-84 or 1-34) is not stated (peptide, UniProt P01270 32-115, looked up)
Parathyroid hormone: SVSEIQLMHNLGKHLNSMERVEWLRKKLQDVHNFVALGAPLAPRDAGSQRPRKKEDNVLVESHEKSLGEADKADVNVLTKAKSQ
modifications: Parathyroid hormone
As for B1, the “type II collagen production” value in data set [1] (20 μg PTH in citrate buffer, 12 days at 37° C., 5% CO2) is listed as “did not induce a substantial production of type II collagen”; in data set [1] (20 μg PTH with permeation enhancers, 12 days) it was “did not induce a substantial production of type II collagen”; in data set [1] (200 μg PTH in simple formulation, 12 days), “significant increase in type II collagen; also recorded: modest amounts of type II collagen production”; in data set [1] (high concentration of PTH (200 μg) with permeation enhancers, 12 days), “essentially no production of type II collagen; also recorded: did not induce any cartilage growth”. The “chondrocyte proliferation (MTT assay)” value in data set [5] (PTH in simple formulation (citrate buffer)) and in data set [5] (PTH with permeation enhancers of Table 2) was “did not stimulate chondrocyte proliferation” each time.
